Experimental data reported in PubChem BioAssay AID1963871 (Molecular Pharmacology Branch, DTP, NCI, 2024).

Tested on: KRAS-mutant PDC multicell tumor spheroid viability
Experiment: Anticancer human tumor 521955-158-R2-J5-PDC patient-derived pancreatic carcinoma cell line growth inhibition [KRAS2]
Conditions: for IC50: curve of first compound; for viability, T/C: stronger effect = lower value
Source text: Multicellular complex tumor spheroid response to RAS pathway inhibitors in combination with a targeted agents in patient-derived cell lines with oncogenic KRAS variants from multiple cancer types
A high-throughput screen of multi-cell type tumor spheroids was designed to identify active combinations of targeted small molecules and KRAS pathway inhibitors. Complex spheroids include a stromal component modeled by human endothelial cells (HUVEC) and fibroblasts modeled by human mesenchymal stem cells (MSCs). The concentration ranges selected for each drug and investigational agent were based upon clinically achievable concentrations if the clinical Cmax of the agent was known.
Compounds. The drugs and investigational agents: BI-3406 (NSC825286), BAY-293 (NSC824723), batoprotafib (TNO155; NSC825523), sotorasib (AMG 510; NSC818433), MRTX1257 (NSC819558), elimusertib (BAY 1895344; NSC800525), molibresib (GSK525762; NSC774829), temuterkib (LY3214996; NSC803410), venetoclax (NSC766270), alisertib (NSC759677), olaparib (NSC753686), talazoparib (NSC767125), erdafitinib (NSC781556), ipatasertib (NSC767898), cabozantinib (NSC761068), nintedanib (NSC756659), abemaciclib (NSC768073), docetaxel (NSC628503), trametinib (NSC758246), and sapanisertib (NSC764658) were obtained from the National Cancer Institute (NCI) Developmental Therapeutics Program Chemical Repository. The FDA-approved anticancer drug set is available from the Developmental Therapeutics Program. […] The stock solutions were prepared in dimethyl sulfoxide (DMSO, Sigma-Aldrich, St. Louis, MO, cat. D2650) at 800-fold the tested concentration and stored at -70 degrees C prior to their use. All drugs and investigational agents were tested over a range starting from a high concentration at or near the clinical Cmax and decreasing in half-log increments. If the clinical Cmax for an agent had not been determined, the highest concentration tested was 10 microM.
Cell Culture. All cells were maintained in an incubator at 37 degrees C and 5% CO2 with 95% humidity. The PDC lines were cultured according to standard operating procedures established by the NCI PDMR (https://pdmr.cancer.gov/sops/default.htm). Briefly, all PDCs were thawed and cultured in Matrigel-coated flasks prepared with a working solution of 1X Ham's F-12 nutrient mix, without supplementation (Invitrogen, Waltham, MA, cat. 11765054), 100 U/mL penicillin-streptomycin (Invitrogen, cat. 15140122), and 2.5% Matrigel (Corning Inc., Corning, NY, cat. 354248) for the first three passages. All PDCs were cultured in complete DMEM/F-12 media containing advanced DMEM/F-12 (Invitrogen, cat. 12634028), 4.9% defined fetal bovine serum, heat inactivated (HyClone Laboratories Inc., Logan, UT, cat. SH30070.03HI), 389 ng/mL hydrocortisone (Sigma-Aldrich, cat. H4001), 9.7 ng/mL human EGF recombinant protein (Invitrogen, cat. PHG0313), 23.4 microg/mL adenine (Sigma-Aldrich, cat. A2786), 97.3 U/mL penicillin-streptomycin (Invitrogen, cat. 15140122), 1.9 mM L-glutamine (Invitrogen, cat. 25030081), and 9.7 microM Y-27632 dihydrochloride (Tocris Bioscience, Bristol, United Kingdom, cat. 1254). The PDCs were cultured in complete DMEM/F12 media without 9.7 microM Y-27632 dihydrochloride for at least two passages prior to the screen. The established cell line HOP-62 was cultured in RPMI 1640 medium, HEPES (Invitrogen, cat. 22400105) with 10% defined fetal bovine serum (HyClone Laboratories Inc., cat. SH30070.03) and 2 mM L-glutamine (Invitrogen, cat. 25030081). The pooled donor HUVEC were cultured in endothelial cell growth medium 2 (PromoCell, Heidelberg, Germany, cat. C-22011) and the hMSC were cultured in mesenchymal stem cell growth medium 2 (PromoCell, cat. C-28009). For all experiments, HUVEC and hMSC were used at passages </=5, while the malignant cell lines were used at passages </=15. […]

[1] = second compound 0.1 µM, first compound 0.01 µM
[2] = second compound 0.1 µM, first compound 0.0316 µM
[3] = second compound 0.1 µM, first compound 0.1 µM
[4] = second compound 0.316 µM, first compound 0.01 µM
[5] = second compound 0.316 µM, first compound 0.0316 µM
[6] = second compound 0.316 µM, first compound 0.1 µM
[7] = second compound 1 µM, first compound 0.01 µM
[8] = second compound 1 µM, first compound 0.0316 µM
[9] = second compound 1 µM, first compound 0.1 µM
[10] = second compound 3.16 µM, first compound 0.01 µM
[11] = second compound 3.16 µM, first compound 0.0316 µM
[12] = second compound 3.16 µM, first compound 0.1 µM
[13] = second compound 0.0316 µM, first compound 0.0316 µM
[14] = second compound 0.0316 µM, first compound 0.1 µM
[15] = second compound 0.0316 µM, first compound 0.316 µM
[16] = second compound 0.0316 µM, first compound 1 µM
[17] = second compound 0.0316 µM, first compound 3.16 µM
[18] = second compound 0.1 µM, first compound 0.316 µM
[19] = second compound 0.1 µM, first compound 1 µM
[20] = second compound 0.1 µM, first compound 3.16 µM
[21] = second compound 0.316 µM, first compound 0.316 µM
[22] = second compound 0.316 µM, first compound 1 µM
[23] = second compound 0.316 µM, first compound 3.16 µM
[24] = second compound 1 µM, first compound 0.316 µM
[25] = second compound 1 µM, first compound 1 µM
[26] = second compound 1 µM, first compound 3.16 µM
[27] = second compound 3.16 µM, first compound 0.316 µM
[28] = second compound 3.16 µM, first compound 1 µM
[29] = second compound 3.16 µM, first compound 3.16 µM
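Also: viability read after seven days of drug exposure.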

Work on `CC(C)n1nc(-c2ccc3oc(N)nc3c2)c2c(N)ncnc21` + CC1OCC2(CCN(c3cnc(Sc4ccnc(N)c4Cl)c(N)n3)CC2)C1N yielded an IC50 (second compound 0.1 µM) of 6.21 nM, an IC50 (second compound 0.316 µM) of 3.52 nM and an IC50 (second compound 1 µM) of 0.359 nM. For the same compound, the IC50 (second compound 3.16 µM) was less than 0.316 nM, the IC50 (second compound 10 µM) was less than 0.316 nM and the viability, T/C (second compound 0.1 µM, first compound 0.000316 µM) was 71.5%. The viability, T/C (second compound 0.1 µM, first compound 0.001 µM) was 71.4%, the viability, T/C (second compound 0.1 µM, first compound 0.00316 µM) was 56.5% and the viability, T/C [1] was 44.2%. It also gave a viability, T/C [2] of 32.8%, a viability, T/C [3] of 24.6% and a viability, T/C (second compound 0.316 µM, first compound 0.000316 µM) of 59.1%. The viability, T/C (second compound 0.316 µM, first compound 0.001 µM) was 57.7%, the viability, T/C (second compound 0.316 µM, first compound 0.00316 µM) was 51.2% and the viability, T/C [4] was 39.5%. The viability, T/C [5] was 31.2%, the viability, T/C [6] was 25.2% and the viability, T/C (second compound 1 µM, first compound 0.000316 µM) was 48.9%. For the same compound, the viability, T/C (second compound 1 µM, first compound 0.001 µM) was 50.8%, the viability, T/C (second compound 1 µM, first compound 0.00316 µM) was 45% and the viability, T/C [7] was 36.9%. For the same compound, the viability, T/C [8] was 28.1%, the viability, T/C [9] was 21.6% and the viability, T/C (second compound 3.16 µM, first compound 0.000316 µM) was 47.5%. It also gave a viability, T/C (second compound 3.16 µM, first compound 0.001 µM) of 50.8%, a viability, T/C (second compound 3.16 µM, first compound 0.00316 µM) of 37.8% and a viability, T/C [10] of 29.4%. It also gave a viability, T/C [11] of 23.4%, a viability, T/C [12] of 19.3% and a viability, T/C (second compound 10 µM, first compound 0.000316 µM) of 47.7%. It also gave a viability, T/C (second compound 10 µM, first compound 0.001 µM) of 50.1%, a viability, T/C (second compound 10 µM, first compound 0.00316 µM) of 41.2% and a viability, T/C (second compound 10 µM, first compound 0.01 µM) of 28.4%. The viability, T/C (second compound 10 µM, first compound 0.0316 µM) was 24.6% and the viability, T/C (second compound 10 µM, first compound 0.1 µM) was 19.6%.

`CC(=O)OC12COC1CC(O)C1(C)C(=O)C(O)C3=C(C)C(OC(=O)C(O)C(NC(=O)OC(C)(C)C)c4ccccc4)CC(O)(C(OC(=O)c4ccccc4)C21)C3(C)C` (stereo not given) + C=CC(=O)N1CCN(c2nc(OCC3CCCN3C)nc3c2CCN(c2cccc4cccc(C)c24)C3)CC1CC#N showed an IC50 (second compound 0.0316 µM) of less than 10 nM, an IC50 (second compound 0.1 µM) of less than 10 nM and an IC50 (second compound 0.316 µM) of less than 10 nM. It also gave an IC50 (second compound 1 µM) of less than 10 nM, an IC50 (second compound 3.16 µM) of less than 10 nM and a viability, T/C (second compound 0.0316 µM, first compound 0.01 µM) of 21.3%. The viability, T/C [13] was 15.8%, the viability, T/C [14] was 12.7% and the viability, T/C [15] was 15.2%. It also gave a viability, T/C [16] of 15.4%, a viability, T/C [17] of 20.6% and a viability, T/C [1] of 19.4%. For the same compound, the viability, T/C [2] was 16.3%, the viability, T/C [3] was 12.6% and the viability, T/C [18] was 12.7%. It also gave a viability, T/C [19] of 15.1%, a viability, T/C [20] of 18.3% and a viability, T/C [4] of 19.3%. The viability, T/C [5] was 10%, the viability, T/C [6] was 9.97% and the viability, T/C [21] was 11.8%. For the same compound, the viability, T/C [22] was 17.3%, the viability, T/C [23] was 19.8% and the viability, T/C [7] was 18.9%. It also gave a viability, T/C [8] of 13.2%, a viability, T/C [9] of 10% and a viability, T/C [24] of 9.11%. The viability, T/C [25] was 11.5%, the viability, T/C [26] was 14.3% and the viability, T/C [10] was 22.1%. It also gave a viability, T/C [11] of 15.5%, a viability, T/C [12] of 15.3% and a viability, T/C [27] of 15.8%. The viability, T/C [28] was 16.9% and the viability, T/C [29] was 21.8%.

`O=C(c1cc(Cc2n[nH]c(=O)c3ccccc23)ccc1F)N1CCN(C(=O)C2CC2)CC1` + C=CC(=O)N1CCN(c2nc(OCC3CCCN3C)nc3c2CCN(c2cccc4cccc(C)c24)C3)CC1CC#N was tested, and the IC50 (second compound 0.0316 µM) was greater than 10000 nM, the IC50 (second compound 0.1 µM) was greater than 10000 nM and the IC50 (second compound 0.316 µM) was greater than 10000 nM. It also gave an IC50 (second compound 1 µM) of 6450 nM, an IC50 (second compound 3.16 µM) of less than 31.6 nM and a viability, T/C [13] of 104%. For the same compound, the viability, T/C [14] was 101%, the viability, T/C [15] was 99.4% and the viability, T/C [16] was 85.1%. The viability, T/C [17] was 80.2%, the viability, T/C (second compound 0.0316 µM, first compound 10 µM) was 61.3% and the viability, T/C [2] was 95.2%. It also gave a viability, T/C [3] of 94.9%, a viability, T/C [18] of 93.7% and a viability, T/C [19] of 92.2%. The viability, T/C [20] was 78.5%, the viability, T/C (second compound 0.1 µM, first compound 10 µM) was 54% and the viability, T/C [5] was 94.2%. For the same compound, the viability, T/C [6] was 92.8%, the viability, T/C [21] was 84.8% and the viability, T/C [22] was 82.9%. The viability, T/C [23] was 78.3%, the viability, T/C (second compound 0.316 µM, first compound 10 µM) was 59.1% and the viability, T/C [8] was 100%. The viability, T/C [9] was 101%, the viability, T/C [24] was 85% and the viability, T/C [25] was 73.3%. The viability, T/C [26] was 70%, the viability, T/C (second compound 1 µM, first compound 10 µM) was 39.5% and the viability, T/C [11] was 4.24%. The viability, T/C [12] was 1.68%, the viability, T/C [27] was 1.74% and the viability, T/C [28] was 1.67%. The viability, T/C [29] was 2.07% and the viability, T/C (second compound 3.16 µM, first compound 10 µM) was 0.32%.
